Here are results for seven molecules from US20040072746A1, “Inhibitors of monocarboxylate transport” (priority 2001, published 2004).

Like-named read-outs stand apart in the source and are kept apart here.

Assay [1] has as its target T1, rat MCT1 (Rattus norvegicus, UniProt P53987).
T1 sequence (P53987 1-494): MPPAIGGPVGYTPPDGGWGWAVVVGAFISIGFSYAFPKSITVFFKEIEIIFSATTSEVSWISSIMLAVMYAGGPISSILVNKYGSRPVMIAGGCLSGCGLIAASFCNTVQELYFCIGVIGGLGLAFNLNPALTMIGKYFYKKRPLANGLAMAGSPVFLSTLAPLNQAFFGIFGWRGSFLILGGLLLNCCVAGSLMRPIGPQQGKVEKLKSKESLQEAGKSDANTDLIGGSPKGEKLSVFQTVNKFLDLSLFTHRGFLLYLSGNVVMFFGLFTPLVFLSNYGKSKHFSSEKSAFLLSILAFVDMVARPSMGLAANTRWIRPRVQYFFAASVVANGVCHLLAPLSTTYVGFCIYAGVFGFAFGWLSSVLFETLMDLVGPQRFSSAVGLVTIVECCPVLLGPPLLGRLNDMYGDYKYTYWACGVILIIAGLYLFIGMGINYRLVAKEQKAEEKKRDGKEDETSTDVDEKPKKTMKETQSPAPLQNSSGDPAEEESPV
To be noted: cited from earlier work.

For assay [2], the target named is T2, MCT1 (Homo sapiens, UniProt P53985, D490E).
T2 sequence (P53985 1-500 D490E): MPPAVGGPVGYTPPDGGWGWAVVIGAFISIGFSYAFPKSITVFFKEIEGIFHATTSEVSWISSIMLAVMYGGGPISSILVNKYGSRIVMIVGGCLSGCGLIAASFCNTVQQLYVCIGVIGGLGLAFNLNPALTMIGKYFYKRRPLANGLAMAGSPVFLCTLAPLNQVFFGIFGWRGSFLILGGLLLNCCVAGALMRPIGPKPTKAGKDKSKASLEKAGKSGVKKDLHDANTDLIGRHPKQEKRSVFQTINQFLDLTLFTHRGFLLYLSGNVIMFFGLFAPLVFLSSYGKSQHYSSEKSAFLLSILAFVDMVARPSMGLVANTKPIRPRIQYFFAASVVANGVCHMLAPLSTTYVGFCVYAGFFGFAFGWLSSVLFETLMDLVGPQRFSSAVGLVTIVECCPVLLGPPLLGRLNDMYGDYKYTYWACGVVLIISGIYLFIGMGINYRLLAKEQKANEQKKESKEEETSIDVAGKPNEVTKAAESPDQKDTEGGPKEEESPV
The assay is described as follows: Yeast expressed MCT1 filter binding assay (competition with 3H-ligand C). Also noted: The invention is not restricted to the use of full-length native human MCTs; made in house; host or cells: Saccharomyces cerevisiae BY4742 (jen1 deletion), membrane preparation; plasmid pACES14-hMCT1. To be noted: yeast membrane MCT1 filter binding, 2.5 nM 3H-ligand C. The protocol:
Assay to Measure the Potency of Selected Compounds Using a Filter Binding Assay
Competition assays can be used to measure the affinity of unlabelled compound for MCT1. […] 180 μl of yeast membranes expressing MCT1 in assay buffer containing typically 0.5 to 1 μg total protein was added to start the reaction. […] The competition assay was incubated at 2 hours at room temperature with shaking. Experimental data points were usually carried out in triplicate. The membranes were harvested onto GF-B filter plates and washed with assay buffer without BSA, dried, scintillant added and counts detected using a tritium program on a Packard Top Count plate reader. The results were analysed by subtraction of the non-specific binding from each of the experimental points and then fitting a sigmoidal curve through a semi-log plot of the data in Microcal Origin.

The target of assay [3] is T3, MCT1 with a streptavidin-binding sequence tag (Homo sapiens, UniProt P53985, D490E).
T3 construct: The invention is not restricted to the use of full-length native human MCTs; made in house; host or cells: Saccharomyces cerevisiae BY4742 (jen1 deletion), membrane preparation; plasmid pACES14-MCT1-strep tag
T3 sequence (P53985 1-500 D490E): T2 sequence (P53985 1-500 D490E)
The assay is described as follows: Yeast membrane MCT1-strep tagged SPA assay (125I ligand A). To be noted: 0.1 nM 125I ligand A. The protocol:
Yeast membranes expressing MCT1 with a streptavidin-binding sequence tag were then added to give a final concentration of 37 μg/ml protein and gently rolled for >30 minutes at room temperature. The beads/membranes were then washed by centrifugation at ˜650 g for 10 minutes and resuspended in assay buffer+0.05% BSA. The washing was repeated once before resuspended in the appropriate volume of assay buffer+0.05% BSA.
Finally, 80 μl of the membrane/bead suspension was added to each well. […] The raw counts were analysed by averaging replicates, subtraction of non-specific binding and the subsequent calculation of % inhibition of binding of the iodinated ligand.

In assay [4] the test system is IgE production. The assay is described as follows: Inhibition of murine antibody production, IgE (ovalbumin immunised). It counts as in vivo, Balb/c mice. Conditions: 10 days following antigenic boost. The protocol:
Balb/c mice were immunised with 0.5 mg/kg ovalbumin (OVA) and 200 mg/kg aluminium hydroxide gel in saline intraperitoneally and left for 29 days before being re-challenged intraperotoneally with 0.5 mg/kg ovalbumin in buffered saline vehicle and left for a further 10 days. Compound was dosed daily from re-challenge to termination prior to serum collection. Control groups were dosed with compound vehicle only. On completion of dosing, serum samples were taken from the mice and analysed for total and specific levels of IgE.
For total IgE, microtitre plates were coated with 5 ug/ml monoclonal rat anti-mouse IgE in phosphate buffered saline (PBS) and incubated overnight at 4° C. The plates were then washed four times with PBS containing 0.05% Tween 20 and then blocked with 1% BSA in PBS at room temperature for 2 hours. This was followed by two further plate washings.
The serum samples and IgE standards were added to the wells in duplicate and incubated overnight. The plates were then washed a further four times before adding 50 ul biotinylated monoclonal rat anti-mouse IgE appropriately diluted in 0.1% BSA in PBS for 2 hours. The plate was washed for a further four times before adding 50 ul streptavidin alkaline phosphatase conjugate appropriately diluted in 1% BSA in PBS at room temperature for 50 minutes. The plate was washed a further four times before enzyme substrate (paranitrophenyl phoshate in 1M diethanolamine buffer pH 9.8) at 1 mg/ml was added. Once the colour reaction developed, the plate was read at 405 nm. Levels of total IgE in serum samples were extrapolated from curve obtained with IgE standards.
For specific IgE, the methodology was similar except for the following. The microtitre plates were coated with 50 ug/ml rat anti-mouse IgE. The serum samples or normal control sera were added to the washed plates. Biotinylated OVA diluted in 0.1% BSA in PBS was used as enzyme marker.

The test system of assay [5] is activated T-lymphocytes. Kind of assay: Extracellular lactate levels in activated T-lymphocytes (lactate oxidase). The assay is classed as cell-based, human. The protocol: (§1) PBMCs were prepared as described above by separation over Lymphoprep and T-lymphocytes were then enriched by purification on a nylon wool column. Briefly, 0.6 g nylon wool was inserted into a 10 ml syringe and this was autoclaved. […] The PBMC were resuspended in 1 ml of pre-warmed RPMI (20% HS) and were loaded onto the nylon wool column. The column was incubated for 45 min at 37° C. followed by elution of the T-cells by adding 10 ml RPMI (20% HS) (prewarmed to 37° C.) dropwise to the column. The T-cells obtained from the elution of the column were centrifuged (850 g for 5 min) and resuspended in RPMI containing L-glutamine and 5% human serum and stimulated with 0.5 ng/ml PMA and 500 ng/ml lonomycin for 48 h.
20 μl of each concentration were added to triplicate wells of a 96-well plate. T-cells were then added (200 μl per well, 2×10^5 cells) and were cultured for 4 h under standard cell culture conditions. The cell supernatants were collected from each well after the cells were pelleted by centrifugation of the plate at 850 g for 5 min at 4° C. 10 μl of each supernatant sample were used for the lactate determination.
(§2) The assay was carried out in 96-well plates at room temperature. 10 μl of standard or sample were added to each well followed by 200 μl of the Lactate Reagent. […] The data were collected and analysed using SOFTmax PRO software (Molecular Devices).

Assay [6] has as its system activated T-lymphocytes. Kind of assay: Intracellular lactate levels in activated T-lymphocytes (lactate oxidase). Conditions: Homo sapiens, T-lymphocyte; Mean±s.e.mean (mean±range for n=2); read-out: pIA50 Intracellular Lactate (converted). The assay is classed as cell-based. The protocol:
as §1
100 μl of each concentration were added to triplicate wells of a 24-well plate. T-cells were then added (1 ml per well) and were cultured for 4 h under standard cell culture conditions. The cells were then transferred from each well to microfuge tubes and were centrifuged at 360 g for 5 min at 4° C. The supernatant was discarded and the cell pellet was resuspended in 1 ml of ice-cold PBS, pH5.0. The cells were washed twice in PBS by centrifugation (360 g, 5 min, 4° C.) followed by resuspension of the cell pellet in 100 μl deionized water. The cells were incubated for 15 min at 4° C. to allow cell lysis to occur and the cell debris was removed by centrifugation at 15000 g for 10 min at 4° C. 10 μl of each supernatant sample were used for the lactate determination.
as §2

Assay [7] has as its system IgG2a production. The assay is described as follows: Inhibition of murine antibody production, IgG2a (ovalbumin in poly I:C). Conditions: Mus musculus, sc, 168 h, subcutaneous, 7 days following antigenic boost. It counts as in vivo, Balb/c mice. The protocol: To measure the effect of the compound on IgG2a production, Balb/c mice were immunised with ovalbumin in poly I:C adjuvant (polyinosinic:polycytidylic acid adjuvant) and left for 14 days before being re-challenged with ovalbumin in buffered saline vehicle and left for a further 7 days. Serum samples were taken from the mice and analysed for total and specific IgG2a. Compound was dosed daily from re-challenge to termination prior to serum collection. For total IgG2A, microtitre plates were coated with 5 ug/ml of goat anti-mouse IgG2a in PBS and incubated overnight at 4° C. The plates were then washed four times with PBS containing 0.05% Tween 20 and then blocked with 1% BSA at room temperature for 2 hours. This was followed by two further plate washings. The serum samples and IgG2a standards were added to the wells in duplicate and incubated at 4° C. overnight. The plates were then washed a further four times before adding 50 ul alkaline phosphatase conjugated goat anti-mouse IgG appropriately diluted in 0.1% BSA in PBS and left at room temperature for an hour. The plate was washed a further four times before enzyme substrate (p-nitrophenyl phosphate in 1M diethanolamine buffer pH 9.8) at 1 mg/ml was added. Once the colour reaction developed, the absorbance of the wells at 405 nm was read in a spectrophotometer. […]

In assay [8] the test system is activated T-lymphocytes. Kind of assay: DNA synthesis ([3H]-thymidine incorporation) in activated T-lymphocytes. The assay is classed as cell-based. To be noted: Homo sapiens, T-lymphocyte; Mean±s.e.mean (mean±range for n=2); read-out: pIA50 DNA (converted). The protocol: as §1
DNA synthesis was assessed by measuring the incorporation of [^3H]-thymidine. The assay was carried out in a 96-well plate. 20 μl of test compounds at 10× the final concentration were added to the plate followed by 200 μl of T-cells per well (2×10^5 cells). The cells were cultured for 4 h under standard cell culture conditions and cultures were pulsed with ^3H-thymidine (0.5 μCi/well; Amersham) for the final hour of the incubation.
(Uptake of a labelled nucleoside into DNA is a usual measure of proliferation.)

The test system of assay [9] is peripheral blood mononuclear cells (PBMC). The assay is described as follows: T-lymphocyte proliferation, PMA/ionomycin stimulated PBMC, 3 days. Conditions: Homo sapiens, 72 h, read-out: pIA50 Proliferation (3 days) (converted).
Source text: The cell signalling pathways triggered by T-cell activation through the T cell receptor and CD28 can be mimicked in vitro using a phorbol ester, phorbol 12-myristate 13-acetate (PMA), which activates protein kinase C, and ionomycin, which induces calcium release from internal cellular stores. PMA and ionomycin-stimulated proliferation of peripheral blood mononuclear cells (PBMC), of which the predominant cell type is T-lymphocytes, provides a suitable assay for measuring the ability of small molecules to block T-cell proliferation.
Blood was centrifuged at 850 g for 10 minutes and the plasma was removed. […] The blood/Lymphoprep layers were centrifuged at 850 g for 20 minutes at 18° C. (with no brake).
10 μl of compound in solution was then added to the 96-well flat bottom assay plate (final volume of 200 μl). […] Both were diluted to 4× the final assay concentration in complete medium. 50 μl of each reagent was dispensed per well to give a final assay concentration of 0.5 ng/ml PMA and 500 ng/ml ionomycin. Control wells received 100 μl cells with PMA only (negative control 1), with ionomycin only (negative control 2) and 100 μl cells with 50 μl PMA and 50 μl ionomycin with no test compound (positive control). 100 μl complete medium was added to the negative controls. […]

Regarding `O=S(=O)(O)c1cc(N=C=S)ccc1C=Cc1ccc(N=C=S)cc1S(=O)(=O)O` [DIDS, 4,4′-di-isothiocyanatostilbene-2,2′-disulphonate], in assay [1], the IC50 was 50000 nM.

Consider `CC(C)Cn1c(=O)n(C)c(=O)c2cc(Cc3nc4ccccc4s3)sc21` [Ligand 4, 6-([benzothiazol-2-yl]methyl)-3-methyl-1-(2-methylpropyl)thieno[2,3-d]pyrimidine-2,4(1H,3H)-dione], for which the IC50 stood at 787 nM in assay [2] and 32.2 nM in [3].

As to `N#CC(=Cc1ccc(O)cc1)C(=O)O` [CHC, α-cyano-4-hydroxycinnamate], in [1], the IC50 is 27000 nM.

Turning to `CC(C)Cn1c(=O)n(C)c(=O)c2c(SCCCO)c(Cc3cccc4ccccc34)sc21` [Ligand 1, 5-[(3-hydroxypropyl)thio]-3-methyl-1-(2-methylpropyl)-6-(1-napthalenylmethyl)thieno[2,3-d]pyrimidine-2,4(1H,3H)-dione], the “inhibition of OVA specific IgE” value worked out at 64% in assay [4] (3 mg/kg subcutaneous) and 53% in assay [4] (30 mg/kg subcutaneous). Besides, the “inhibition of total IgE” value is recorded as 67% in assay [4] (3 mg/kg subcutaneous) and 84% in assay [4] (30 mg/kg subcutaneous). In addition, the “maximum level of inhibition, extracellular lactate” value in assay [5] was 30±1.9%. For the same molecule, in [6], the EC50 was 0.407 nM. Also, the ED50 (commonly the dose that gives a 50% effect, or the effect in half of the subjects) amounted to 10 mg/kg in [7] (read-out: ED50, specific IgG2a production) and 30 mg/kg in [7] (read-out: ED50, total IgG2a production).

`O=C(CCc1ccc(O)cc1)c1c(O)cc(O)cc1O` [phloretin]: the IC50 in assay [1] was 1000 nM.

As for `CC(C)Cn1c(=O)n(C)c(=O)c2cc(Cc3ccnc4ccccc34)sc21` [Ligand 3, 6-(4-quinolinylmethyl)--3-methyl-1-(2-methylpropyl)-thieno[2,3-d]pyrimidin-2,4(1H,3H)-dione], the IC50 came out at 105 nM in [2] and 15.4 nM in assay [3].

With `CON(C)C(=O)c1c(Cn2c(C)nc(Cl)c2Cl)sc2c1c(=O)n(C)c(=O)n2CC(C)C` [Ligand 5, 6-[(4,5-Dichloro-2-methyl-1H-imidazol-1-yl)methyl]-1,2,3,4-tetrahydro-N-methoxy-N,3-dimethyl-1-(2-methylpropyl)-2,4-dioxo-thieno[2,3-d]pyrimidine-5-carboxamide], the IC50 in assay [8] is 2.69 nM; in assay [9] it was 1.66 nM; in [5] (Homo sapiens, T-lymphocyte, Mean±s.e.mean (mean±range for n=2), read-out: pIA50 Extracellular Lactate (converted)), 3.8 nM. Further, in [6], the EC50 was 2.29 nM.
